Assay [1] relates to panel of fifteen human rhinovirus (HRV) serotypes. Nature of the assay: plaque reduction assay, panel of fifteen human rhinovirus serotypes (MIC50/MIC80). The class given is cell-based. The settings on record: for MIC50: concentration required to inhibit 50% of the tested serotypes, HeLa (Wisconsin) cells, read-out: MIC₅₀ (Rhinovirus); for MIC₈₀ (N) (Rhinovirus): concentration required to inhibit 80% of the tested serotypes, N in parentheses = number of serotypes tested. How it is done: (§1) The MIC values were determined by a standard plaque reduction assay as follows: HeLa (Wisconsin) cells in monolayers were infected at a concentration of virus to give approximately 80 plaques per monolayer in the virus control (no drug present). The compound to be tested was serially diluted and included in the agar-medium overlay and in some cases, during the adsorption period as well. The MIC was determined to be that concentration of compound which reduced the number of plaques by 50% with respect to the untreated virus control.
(§2) In the standard test procedures, the compounds were tested against a panel of fifteen human rhinovirus (HRV) serotypes, namely HRV-2, -1A, -1B, -6, -14, -21, -22, -15, -25, -30, -50, -67, -89, -86 and -41. The MIC value for each rhinovirus serotype was determined, and the efficacy of each compound was determined in terms of MIC₅₀ and MIC₈₀ values, which is the concentration of the compound required to inhibit 50% and 80%, respectively, of the tested serotypes.
The following Table gives the testing results with the compounds of the invention. For some of the compounds, the MIC₅₀ and MIC₈₀ values are based on the testing of fewer than 15 rhinovirus serotypes. In these cases the number of serotypes (N) is indicated in parentheses after the MIC₈₀ figure.
For orientation: In a plaque reduction assay, fewer plaques than in the control indicate reduced infectivity or spread.

In a further assay the test system is HRV-22. Description: plaque reduction assay, rhinovirus serotype 22. The class given is cell-based, human rhinovirus (HRV). The settings on record: Enterovirus, HRV22, 50% plaque reduction, HeLa (Wisconsin) cells, read-out: MIC. How it is done: as §1, §2
(§3) The following Table compares the MIC values for the compound of Example 10(c) and the methylated derivative of Example 11(c) against 15 rhinovirus serotypes: […]

In another assay the test system is HRV-1A. Description: plaque reduction assay, rhinovirus serotype 1A. The class given is cell-based, human rhinovirus (HRV). The settings on record: 50% plaque reduction, HeLa (Wisconsin) cells, read-out: MIC. How it is done:
as §1, §2, §3

For the next assay, the system named is HRV-14. Description: plaque reduction assay, rhinovirus serotype 14. The class given is cell-based, human rhinovirus (HRV). Conditions: 50% plaque reduction, HeLa (Wisconsin) cells, read-out: MIC. How it is done: as §1, §2, §3
For a further assay, the system named is HRV-21. Nature of the assay: plaque reduction assay, rhinovirus serotype 21. The class given is cell-based, human rhinovirus (HRV). Conditions: Enterovirus, HRV21, 50% plaque reduction, HeLa (Wisconsin) cells, read-out: MIC. How it is done: as §1, §2, §3
Another assay has as its system HRV-86. Description: plaque reduction assay, rhinovirus serotype 86. It is filed as cell-based, human rhinovirus (HRV). Conditions: Enterovirus, HRV86, 50% plaque reduction, HeLa (Wisconsin) cells, read-out: MIC. How it is done:
as §1, §2, §3

The next assay deals with HRV-1B. Description: plaque reduction assay, rhinovirus serotype 1B. It is filed as cell-based, human rhinovirus (HRV). Conditions: 50% plaque reduction, HeLa (Wisconsin) cells, read-out: MIC. How it is done:
as §1, §2, §3

Another assay has as its system HRV-30. Description: plaque reduction assay, rhinovirus serotype 30. It is filed as cell-based, human rhinovirus (HRV). Conditions: Enterovirus, HRV30, 50% plaque reduction, HeLa (Wisconsin) cells, read-out: MIC. How it is done: as §1, §2, §3
In another assay the test system is HRV-67. Nature of the assay: plaque reduction assay, rhinovirus serotype 67. Conditions: Enterovirus, HRV67, 50% plaque reduction, HeLa (Wisconsin) cells, read-out: MIC. The class given is cell-based, human rhinovirus (HRV). How it is done:
as §1, §2, §3

For another assay, the system named is Polio 2. Description: microbe, parasite or virus in culture. It is filed as cell-based. Conditions: HeLa, read-out: MIC (Polio 2).
A further assay relates to HRV-41. Description: plaque reduction assay, rhinovirus serotype 41. It is filed as cell-based, human rhinovirus (HRV). Conditions: Enterovirus, HRV41, 50% plaque reduction, HeLa (Wisconsin) cells, read-out: MIC. How it is done: as §1, §2, §3
Another assay concerns HRV-15. Description: plaque reduction assay, rhinovirus serotype 15. The class given is cell-based, human rhinovirus (HRV). Conditions: Enterovirus, HRV15, 50% plaque reduction, HeLa (Wisconsin) cells, read-out: MIC. How it is done:
as §1, §2, §3

The subject of the next assay is HRV-89. Description: plaque reduction assay, rhinovirus serotype 89. It is filed as cell-based, human rhinovirus (HRV). The settings on record: 50% plaque reduction, HeLa (Wisconsin) cells, read-out: MIC. How it is done:
as §1, §2, §3

The test system of another assay is HRV-2. Description: plaque reduction assay, rhinovirus serotype 2. It is filed as cell-based, human rhinovirus (HRV). The settings on record: 50% plaque reduction, HeLa (Wisconsin) cells, read-out: MIC. How it is done: as §1, §2, §3
The subject of another assay is HRV-50. Nature of the assay: plaque reduction assay, rhinovirus serotype 50. Conditions: Enterovirus, HRV50, 50% plaque reduction, HeLa (Wisconsin) cells, read-out: MIC. It is filed as cell-based, human rhinovirus (HRV). How it is done:
as §1, §2, §3

The test system of the next assay is HRV-6. Nature of the assay: plaque reduction assay, rhinovirus serotype 6. It is filed as cell-based, human rhinovirus (HRV). The settings on record: Enterovirus, HRV6, 50% plaque reduction, HeLa (Wisconsin) cells, read-out: MIC. How it is done: as §1, §2, §3
The test system of another assay is HRV-25. Nature of the assay: plaque reduction assay, rhinovirus serotype 25. The class given is cell-based, human rhinovirus (HRV). The settings on record: Enterovirus, HRV25, 50% plaque reduction, HeLa (Wisconsin) cells, read-out: MIC. How it is done: as §1, §2, §3

Converted amounts (≈) assume the structure as drawn.

Consider `Cc1cc(CCCOc2c(C)cc(-c3nnc(C)o3)cc2C)on1` [12(d), 5-{3-[2,6-Dimethyl-4-(5-methyl-1,3,4-oxadiazol-2-yl)-phenoxy]propyl}-3-methylisoxazole], for which, in [1], the MIC50 stood at 0.054 µg/mL (≈ 0.165 µM) and the “MIC₈₀ (N) (Rhinovirus)” value is reported as 0.35 (6) micrograms per milliliter.

For the compound `Cc1cc(CCCCCOc2c(Cl)cc(-c3nnco3)cc2Cl)on1` [Example 10(c), 5-{5-[2,6-Dichloro-4-(1,3,4-oxadiazol-2-yl)phenoxy]-pentyl}-3-methylisoxazole, reference compound], the EC50 in the assay with HRV-22 turned out to be 0.45 µg/mL (≈ 1.18 µM); in the assay with HRV-1A, 1.45 µg/mL (≈ 3.79 µM); in the assay on HRV-14, 2.02 µg/mL (≈ 5.28 µM); in the assay on HRV-21, 0.24 µg/mL (≈ 0.628 µM); in the assay with HRV-86, 1.28 µg/mL (≈ 3.35 µM); in the assay on HRV-1B it was 0.53 µg/mL (≈ 1.39 µM). In addition, the EC50 was determined as 0.1 µg/mL (≈ 0.262 µM) in the assay with HRV-30; 0.64 µg/mL (≈ 1.67 µM) with HRV-67; 2.24 µg/mL (≈ 5.86 µM) with Polio 2; 2.76 µg/mL (≈ 7.22 µM) in the assay with HRV-41; 1.92 µg/mL (≈ 5.02 µM) in the assay on HRV-15; 0.28 µg/mL (≈ 0.733 µM) in the assay with HRV-89. Also, the EC50 in the assay on HRV-2 worked out at 0.41 µg/mL (≈ 1.07 µM); with HRV-50 it was 0.091 µg/mL (≈ 0.238 µM); with HRV-6 it was 7.06 µg/mL (≈ 18.5 µM); in the assay on HRV-25 it was 2.42 µg/mL (≈ 6.33 µM). Besides, the MIC50 in assay [1] is 0.25 µg/mL (≈ 0.654 µM). Besides, the “MIC₈₀ (N) (Rhinovirus)” value in assay [1] amounted to 0.91 micrograms per milliliter.

Consider `CCc1cc(CCCOc2c(C)cc(-c3noc(C)n3)cc2C)on1` [Example 8(c), 5-{3-[2,6-dimethyl-4-(5-methyl-1,2,4-oxadiazol-3-yl)phenoxy]propyl}-3-ethylisoxazole], for which, in assay [1], the MIC50 came to 0.017 µg/mL (≈ 0.0498 µM) and the “MIC₈₀ (N) (Rhinovirus)” value is 0.05 (6) micrograms per milliliter.

For `Cc1cc(CCCCCOc2c(Cl)cc(-c3nnc(C)o3)cc2Cl)on1` [Example 11(c), 5-{5-[2,6-dichloro-4-(5-methyl-1,3,4-oxadiazol-2-yl)phenoxy]pentyl}-3-methylisoxazole], the EC50 with HRV-22 came to 0.018 µg/mL (≈ 0.0454 µM); in the assay with HRV-1A, 0.44 µg/mL (≈ 1.11 µM); in the assay on HRV-14 it was 0.19 µg/mL (≈ 0.479 µM); with HRV-21, 0.0092 µg/mL (≈ 0.0232 µM); with HRV-86 it was 0.57 µg/mL (≈ 1.44 µM); in the assay on HRV-1B it was 0.14 µg/mL (≈ 0.353 µM). In addition, the EC50 in the assay with HRV-30 is 0.031 µg/mL (≈ 0.0782 µM); in the assay with HRV-67 it was 0.1 µg/mL (≈ 0.252 µM); in the assay with HRV-41 it was 99 µg/mL (≈ 250 µM); in the assay on HRV-15, 0.42 µg/mL (≈ 1.06 µM); in the assay on HRV-89, 0.01 µg/mL (≈ 0.0252 µM); with HRV-2, 0.016 µg/mL (≈ 0.0404 µM). In addition, the EC50 in the assay on HRV-50 worked out at 0.041 µg/mL (≈ 0.103 µM); with HRV-6, 0.46 µg/mL (≈ 1.16 µM); in the assay on HRV-25, 0.7 µg/mL (≈ 1.77 µM). The MIC50 in assay [1] was 0.14 µg/mL (≈ 0.353 µM). Besides, the “MIC₈₀ (N) (Rhinovirus)” value in [1] is 0.46 (15) micrograms per milliliter.

For `Cc1cc(CCCCCOc2c(C)cc(-c3nnc(C)o3)cc2C)on1` [Example 14, 5-{5-[2,6-Dimethyl-4-(5-methyl-1,3,4-oxadiazol-2-yl)phenoxy]pentyl}-3-methylisoxazole], in assay [1], the MIC50 was determined as 0.34 µg/mL (≈ 0.957 µM) and the “MIC₈₀ (N) (Rhinovirus)” value was 0.67 (2) micrograms per milliliter.

On to `CCc1cc(CCCOc2c(C)cc(-c3nc(C)no3)cc2C)on1` [4(d), 5-{3-[2,6-Dimethyl-4-(3-methyl-1,2,4-oxadiazol-5-yl)-phenoxy]propyl}-3-ethylisoxazole], for which, in assay [1], the MIC50 came out at 0.042 µg/mL (≈ 0.123 µM) and the “MIC₈₀ (N) (Rhinovirus)” value was 0.15 (15) micrograms per milliliter.

On to `Cc1cc(CCCCCCCOc2ccc(-c3nnc(C)o3)cc2)on1` [Example 13, 3-Methyl-5-{7-[4-(5-methyl-1,3,4-oxadiazol-2-yl)phenoxy]-heptyl}isoxazole], for which, in assay [1], the MIC50 was 2.3 µg/mL (≈ 6.47 µM) and the “MIC₈₀ (N) (Rhinovirus)” value is on record as 3.2 (2) micrograms per milliliter.

Take `CCCc1cc(CCCOc2c(C)cc(-c3noc(C)n3)cc2C)on1` [Example 9, 5-{3-[2,6-Dimethyl-4-(5-methyl-1,2,4-oxadiazol-3-yl)phenoxy]propyl}-3-propylisoxazole]: in assay [1], the MIC50 was 0.025 µg/mL (≈ 0.0703 µM) and the “MIC₈₀ (N) (Rhinovirus)” value was 0.04 (6) micrograms per milliliter.

Regarding `Cc1cc(CCCCCOc2c(C)cc(-c3noc(C)n3)cc2C)on1` [Example 6, 5-{5-[2,6-dimethyl-4-(5-methyl-1,2,4-oxadiazol-3-yl)phenoxy]pentyl}-3-methylisoxazole], in assay [1], the MIC50 stood at 0.018 µg/mL (≈ 0.0506 µM) and the “MIC₈₀ (N) (Rhinovirus)” value is 0.10 (5) micrograms per milliliter.

With `Cc1cc(CCCCCOc2c(C)cc(-c3nc(C)no3)cc2C)on1` [2(b), 5-{5-[2,6-dimethyl-4-(3-methyl-1,2,4-oxadiazol-5-yl)phenoxy]pentyl}-3-methylisoxazole], in assay [1], the MIC50 was found to be 0.053 µg/mL (≈ 0.149 µM) and the “MIC₈₀ (N) (Rhinovirus)” value is given as 0.42 (6) micrograms per milliliter.

For the compound `Cc1cc(CCCCCOc2ccc(-c3nnco3)cc2)on1` [Example 1, 3-Methyl-5-{5-[4-(1,3,4-oxadiazol-2-yl)phenoxy]pentyl}-isoxazole, reference compound], in [1], the “MIC₈₀ (N) (Rhinovirus)” value is reported as 2.56 (1) micrograms per milliliter. In addition, in the assay on Polio 2, the EC50 worked out at 0.05 µg/mL (≈ 0.16 µM).

As for `CCCc1cc(CCCOc2c(C)cc(-c3nc(C)no3)cc2C)on1` [5(e), 5-{3-[2,6-dimethyl-4-(3-methyl-1,2,4-oxadiazol-5-yl)phenoxy]propyl}-3-(n-propyl)isoxazole], in assay [1], the MIC50 is 0.036 µg/mL (≈ 0.101 µM) and the “MIC₈₀ (N) (Rhinovirus)” value was 0.06 (7) micrograms per milliliter.

In the case of `Cc1cc(CCCOc2c(C)cc(-c3noc(C)n3)cc2C)on1` [Example 7, 5-{3-[2,6-Dimethyl-4-(5-methyl-1,2,4-oxadiazol-3-yl)phenoxy]propyl}-3-methylisoxasole], in [1], the MIC50 is 0.012 µg/mL (≈ 0.0367 µM) and the “MIC₈₀ (N) (Rhinovirus)” value is listed as 0.069 (13) micrograms per milliliter.

As for `Cc1cc(CCCOc2c(C)cc(-c3nc(C)no3)cc2C)on1` [3(b), 5-{3-[2,6-Dimethyl-4-(3-methyl-1,2,4-oxadiazol-5-yl)-phenoxy]propyl}-3-methylisoxazole], in [1], the MIC50 is 0.026 µg/mL (≈ 0.0794 µM) and the “MIC₈₀ (N) (Rhinovirus)” value is reported as 0.12 (15) micrograms per milliliter.

For the origin of these results see patent publication EP0413289B1 (priority 1989, dated 1991).
